Test results as given in patent publication US20230165970A1, “COMPOSITIONS AND METHODS FOR THE TREATMENT OF BACTERIAL INFECTIONS” (priority 2017, published 2023).
Values after ≈ are worked out from the molar mass of the structure shown. Like-named read-outs stand apart in the source and are kept apart here. *1 amine or outer side, *2 acyl side, *3 side chain or, on linkers, in order; H or OH if unused. Where a SMILES comes first, the peptide text is derived from it. Bridges are numbered along the chain shown (N, C = ends). Roman numbers before positions name the chains, in order. [ ]: non-standard residue; d: D form. The star is where a group is joined. ξ: configuration not given here. X9 = C#CCOCCOCCOCCOCCC(=O)N1C[C@@H](C(=O)[*:1])[C@H](C(=O)[*:2])C1; X4 = C#CCOCCOCCOCCOCCNC(=O)CN(CC(=O)[*:1])CC(=O)[*:2]; Propargyl(OCH2CH2)4CO = C#CCOCCOCCOCCOCCC(=O)*; X3 = CCCCC[C@@H](O)[C@H](N[*:1])C(=O)[*:2]; Nle = CCCC[C@H](N)C(=O)O; ξF = NC(Cc1ccccc1)C(=O)O; Dab = NCC[C@H](N)C(=O)O; ξT = CC(O)C(N)C(=O)O; azaGly = NNC(=O)O

Experiments:
Ab 19606 (COLhet^R) = assay type: cell-based, Acinetobacter baumannii; conditions: media CA-MHB
Protocol: (§1) Briefly, stock solutions of all antibacterial agents were prepared fresh in appropriate solvents (i.e. PBS, pH 7.4, DMSO, DI, etc.). Stock concentrations for drug conjugates were made at 12.5× the highest final assay concentration. All were serially diluted 2-fold, 8 or 12 times in a 96-well PCR plate (VWR cat. no. 83007-374). Bacterial cell suspensions generated from Mueller-Hinton agar (MHA) plate cultures were prepared in 0.85% saline and adjusted to ˜0.1 OD600 nm. Next, cell suspensions were diluted 1:200 in RPMI containing 5% Luria Broth (LB) to improve bacterial growth (BD Difco, cat. no. 244620) to a concentration of ˜5×10^5 CFU (colony-forming units)/mL. Due to poor solubility in Mueller-Hinton broth media, drug conjugates were evaluated in RPMI 1640 medium (+) L-glutamine, (+) sodium bicarbonate, pH 7.4 (“RPMI B”; Gibco, cat. no. 11875-085) as has been described as a more physiologically-relevant media for susceptibility testing of antibacterial compounds (1). For the conjugates, 92 μL of each cell suspension in RPMI B were added in the same 96-well plate assay format. […] Compounds were tested against a 14-strain panel comprised of E. coli (Ec), A. baumannii (Ab), P. aeruginosa (Pa), and K. pneumoniae (Kp) that were obtained from ATCC (Ec 25922, Ec 2489, Ab 19606, Pa 27853, Pa PAO1, Kp 43816, Kp 10031), Centers for Disease Control and Prevention (Ec AR0349), BEI Resources (Ab AB5075), Micromyx LLC (Ab 8990, Kp 6951), and Belgian Coordinated Collections of Microorganisms (Pa LES431) or generated in-house (Ec 25922 64X-1). […] E. coli strain ATCC 25922 and P. aeruginosa strain LES431 were run in the presence and absence of 50% heat-inactivated fetal bovine serum (FBS; Sigma, cat. no. F4135-100 mL). Plates were mixed by shaking then incubated at 35° C. overnight (16-20 h).

Ec 25922 64X-1 (COL^R) = assay type: cell-based, Escherichia coli; conditions: media CA-MHB
Protocol: as §1

Ec AR0349 (mcr-1, COL^R) = assay type: cell-based, Escherichia coli; conditions: media CA-MHB
Protocol: as §1

Ab AB5075 = assay type: cell-based, Acinetobacter baumannii
Protocol: (§2) Briefly, stock solutions of all antibacterial agents were prepared fresh in appropriate solvents (i.e. PBS, pH 7.4, DMSO, DI, etc.). Stock concentrations for drug conjugates were made at 12.5× the highest final assay concentration. All were serially diluted 2-fold, 8 or 12 times in a 96-well PCR plate (VWR cat. no. 83007-374). Bacterial cell suspensions generated from Mueller-Hinton agar (MHA) plate cultures were prepared in 0.85% saline and adjusted to ˜0.1 OD600 nm. […] For the conjugates, 92 μL of each cell suspension in RPMI B were added in the same 96-well plate assay format. […] Compounds were tested against a 14-strain panel comprised of E. coli (Ec), A. baumannii (Ab), P. aeruginosa (Pa), and K. pneumoniae (Kp) that were obtained from ATCC (Ec 25922, Ec 2489, Ab 19606, Pa 27853, Pa PAO1, Kp 43816, Kp 10031), Centers for Disease Control and Prevention (Ec AR0349), BEI Resources (Ab AB5075), Micromyx LLC (Ab 8990, Kp 6951), and Belgian Coordinated Collections of Microorganisms (Pa LES431) or generated in-house (Ec 25922 64X-1). […] E. coli strain ATCC 25922 and P. aeruginosa strain LES431 were run in the presence and absence of 50% heat-inactivated fetal bovine serum (FBS; Sigma, cat. no. F4135-100 mL). Plates were mixed by shaking then incubated at 35° C. overnight (16-20 h).

Ab 8990 (COL^R) = assay type: cell-based, Acinetobacter baumannii
Protocol: as §2

Kp 6951 (COL^R) = assay type: cell-based, Klebsiella pneumoniae
Protocol: as §2

Kp 10031 = assay type: cell-based, Klebsiella pneumoniae
Protocol: as §2

Kp 43816 = assay type: cell-based, Klebsiella pneumoniae
Protocol: as §2

Pa LES431 = assay type: cell-based, Pseudomonas aeruginosa
Protocol: as §2

Pa PAO1 = assay type: cell-based, Pseudomonas aeruginosa
Protocol: as §2

Pa 27853 = assay type: cell-based, Pseudomonas aeruginosa
Protocol: as §2

Ec 25922 = assay type: cell-based, Escherichia coli
Protocol: as §2

Ec 2469 = assay type: cell-based, Escherichia coli
Protocol: as §2

LPS from E. coli O111:B4 = test: LPS binding/neutralization by Limulus Amebocyte Lysate (LAL) assay; assay type: biochemical; conditions: LPS 1-10,000 ng/mL, test article 0.25-10 μM; sum of AUCs relative to maximal AUC (Table 14)
Protocol: The LAL assay (Charles River) was used to determine the binding affinity of test articles to LPS.
(§3) For the assay, 25 μL purified LPS from E. coli O111:1B4 (Sigma) at doses ranging from 1-10,000 ng/mL were incubated with 25 μL of test article at concentrations ranging from 0.25-10 NM. After 5 min incubation at 37° C., 50 μL of LAL reagent, which reacts with lipid A portion from LPS, was added to corresponding wells. After 15 min, absorbance at 405 nm was read on EnSpire plate reader (Perkin Elmer). The % LPS neutralization is calculated relative to a PBS control (background) and LPS control at each concentration (positive control).
LPS neutralization=(1−(absorbance test article−PBS with LAL reagent)/(absorbance no test article−PBS with LAL reagent))×100
To obtain a single value of LPS neutralization for each test article, the area under the curve (AUC) for dose-response of test articles from […] for each LPS concentration was calculated using Prism 7 software. The % LPS neutralization is the sum of the AUCs for each LPS concentration determined relative to the maximal AUC achievable×100.
as §3, with “O111:B4” for “O111:1B4”, “μM.” for “NM.”

Compound: C#CCOCCOCCOCCOCCNC(=O)CN(CC(=O)N[C@@H](CCCC)C(=O)N[C@@H](CCN)C(=O)N[C@H](C(=O)NNC(=O)N[C@H]1CCNC(=O)[C@H]([C@@H](C)O)NC(=O)[C@H](CCN)NC(=O)[C@H](CCN)NC(=O)[C@H](CC(C)C)NC(=O)[C@@H](Cc2ccccc2)NC(=O)[C@H](CCN)NC1=O)[C@H](O)CCCCC)CC(=O)N[C@@H](CCCC)C(=O)N[C@@H](CCN)C(=O)N[C@H](C(=O)NNC(=O)N[C@H]1CCNC(=O)[C@H]([C@@H](C)O)NC(=O)[C@H](CCN)NC(=O)[C@H](CCN)NC(=O)[C@H](CC(C)C)NC(=O)[C@@H](Cc2ccccc2)NC(=O)[C@H](CCN)NC1=O)[C@H](O)CCCCC [Int-111] (I: [Nle][Dab][X3][azaGly][Dab][Dab][dF]L[Dab][Dab]T / II: [Nle][Dab][X3][azaGly][Dab][Dab][dF]L[Dab][Dab]T; lactam I:5-I:C, II:5-II:C; linker I:N-II:N via X4)
- MIC (Ab 19606 (COLhet^R)): 4 µg/mL (≈ 1.45 µM)
- MIC (Ec 25922 64X-1 (COL^R)): 4 µg/mL (≈ 1.45 µM)
- MIC (Ec AR0349 (mcr-1, COL^R)): 4 µg/mL (≈ 1.45 µM)
- MIC (Ab AB5075): 4 µg/mL (≈ 1.45 µM)
- MIC (Ab 8990 (COL^R)): 32 µg/mL (≈ 11.6 µM)
- MIC (Kp 6951 (COL^R)): 8 µg/mL (≈ 2.91 µM)
- MIC (Kp 10031): 4 µg/mL (≈ 1.45 µM)
- MIC (Kp 43816): 4 µg/mL (≈ 1.45 µM)
- MIC (Pa LES431): 4 µg/mL (≈ 1.45 µM)
- MIC (Pa PAO1; PAO1): 8 µg/mL (≈ 2.91 µM)
- MIC (Pa 27853): 4 µg/mL (≈ 1.45 µM)
- MIC (Ec 25922): 4 µg/mL (≈ 1.45 µM)
- MIC (Ec 2469): 4 µg/mL (≈ 1.45 µM)

Compound: C#CCOCCOCCOCCOCCC(=O)N1C[C@@H](C(=O)N[C@@H](CCCC)C(=O)N[C@@H](CCN)C(=O)N[C@H](C(=O)NNC(=O)N[C@H]2CCNC(=O)[C@H]([C@@H](C)O)NC(=O)[C@H](CCN)NC(=O)[C@H](CCN)NC(=O)[C@H](CC(C)C)NC(=O)C(Cc3ccccc3)NC(=O)[C@H](CCN)NC2=O)[C@@H](C)O)[C@H](C(=O)N[C@@H](CCCC)C(=O)N[C@@H](CCN)C(=O)N[C@H](C(=O)NNC(=O)N[C@H]2CCNC(=O)C(C(C)O)NC(=O)[C@H](CCN)NC(=O)[C@H](CCN)NC(=O)[C@H](CC(C)C)NC(=O)[C@@H](Cc3ccccc3)NC(=O)[C@H](CCN)NC2=O)[C@@H](C)O)C1 (some centres unmarked) [Int-107] (I: [Nle][Dab]T[azaGly][Dab][Dab][dF]L[Dab][Dab][ξT] / II: [Nle][Dab]T[azaGly][Dab][Dab][ξF]L[Dab][Dab]T; lactam I:5-I:C, II:5-II:C; linker I:N-II:N via X9)
- MIC (Ab 19606 (COLhet^R)): 2 µg/mL (≈ 0.759 µM)
- MIC (Ec 25922 64X-1 (COL^R)): 4 µg/mL (≈ 1.52 µM)
- MIC (Ec AR0349 (mcr-1, COL^R)): 2 µg/mL (≈ 0.759 µM)
- MIC (Ab AB5075; Ab AB5075, media CA-MHB): 2 µg/mL (≈ 0.759 µM)
- MIC (Ab 8990 (COL^R); Ab 8990 (COL^R), media CA-MHB): >128 µg/mL
- MIC (Kp 6951 (COL^R); Kp 6951 (COL^R), media CA-MHB): 16 µg/mL (≈ 6.07 µM)
- MIC (Kp 10031; Kp 10031, media CA-MHB): 2 µg/mL (≈ 0.759 µM)
- MIC (Kp 43816; Kp 43816, media CA-MHB): 2 µg/mL (≈ 0.759 µM)
- MIC (Pa LES431; Pa LES431 + FBS (50%, heat-inactivated), media CA-MHB): 8 µg/mL
- MIC (Pa LES431; Pa LES431, media CA-MHB): 2 µg/mL (≈ 0.759 µM)
- MIC (Pa PAO1; Pa PAO1, media CA-MHB): 2 µg/mL (≈ 0.759 µM)
- MIC (Pa 27853; Pa 27853, media CA-MHB): 2 µg/mL (≈ 0.759 µM)
- MIC (Ec 25922; Ec 25922 + FBS (50%, heat-inactivated), media CA-MHB): 0.5 µg/mL
- MIC (Ec 25922; Ec 25922, media CA-MHB): 2 µg/mL (≈ 0.759 µM)
- MIC (Ec 2469; Ec 2469, media CA-MHB): 2 µg/mL (≈ 0.759 µM)

Compound: C#CCOCCOCCOCCOCCC(=O)N[C@@H](CCCC)C(=O)N[C@@H](CCN)C(=O)N[C@H](C(=O)NNC(=O)N[C@H]1CCNC(=O)[C@H]([C@@H](C)O)NC(=O)[C@H](CCN)NC(=O)[C@H](CCN)NC(=O)[C@H](CC(C)C)NC(=O)[C@@H](Cc2ccccc2)NC(=O)[C@H](CCN)NC1=O)[C@H](O)CCCCC [Int-100] ({Propargyl(OCH2CH2)4CO}-[Nle][Dab][X3][azaGly][Dab][Dab][dF]L[Dab][Dab]T; lactam 5-C)
- % LPS neutralization of TM (LPS from E. coli O111:B4): 38.9%
